Data set [1] concerns E. coli MG1655 gloA-mutant. The experiment in a line: Toxicity of methylglyoxal, growth inhibition of gloA-mutant. The format is cell-based. The settings on record: gloA (glyoxylase I) mutant, especially sensitive; OD580 48.5 h after inoculation. Here is the method:
(§1) E. coli MG1655 wild-type or mutants inactivated in the genes gloA and gloB, respectively, were cultivated in minimal-medium with pure-glycerol (10 g/l) as source for carbon and energy containing different amounts of methylglyoxal. Tests for methylglyoxal indicated a period of at least 72 h of chemical stability. E. coli was cultivated in microtiterplates without agitation at 37° C. under a humid atmosphere. Growth was determined at OD580 48.5 h after inoculation (FIG. 1; black bars, E. coli MG1655 wild-type; grey bars, E. coli MG1655 gloA-mutant; hatched bars, E. coli MG1655 gloB-mutant).

The subject of data set [2] is E. coli MG1655 gloB-mutant. The experiment in a line: Toxicity of methylglyoxal, growth inhibition of gloB-mutant. It is filed as cell-based. The settings on record: OD580 48.5 h after inoculation. The protocol: as §1
The test system of data set [3] is E. coli MG1655 wild-type. As to the kind of experiment: Toxicity of methylglyoxal, growth inhibition of wild-type. The format is cell-based. The settings on record: minimal medium with pure glycerol 10 g/l; microtiterplates, 37° C.; OD580 48.5 h after inoculation. Here is the method: as §1
Data set [4] can be described thus: Chemical stability of methylglyoxal. It is filed as physicochemical. The protocol:
as §1

Data set [5] has as its system E. coli MG1655. As to the kind of experiment: Biomass production of E. coli MG1655 on crude or pure glycerol. It is filed as cell-based. The settings on record: oxic conditions, unregulated pH, cultivation tubes. The protocol: E. coli was cultured in a defined minimal medium that was designed to contain low levels of phosphate, since phosphate is a known inhibitor of methyglyoxal synthase. Per liter, the medium contained: E. coli strains were routinely propagated in cultivation tubes (total volume 30 ml. Inoculum 5 ml) or glass bottles sealed with rubber-stoppers (total volume 12 ml, inoculum 10 ml) for creating semi-anoxic conditions. The term “cultivation under oxic conditions” implies cultivation in non-sealed containments with agitation. Semi-anoxic in that context means cultivation of strains without agitation in medium that was prepared under oxic conditions and in closed containments, e.g. bottles sealed with rubber-stoppers upon inoculation to avoid diffusing in of external oxygen. Cultivation times varied between 2 and 5 days, for oxic and semi-anoxic conditions, respectively. […] [table]

Data set [6] deals with E. coli DH5alpha araB glpK mutant. The experiment in a line: Growth on glucose or glycerol as carbon source, glpK mutant. The format is cell-based. The settings on record: no plasmid, carbon source 10 g/l, 37° C., oxic, 5 days. From the text: (§2) Genes gldA from E. coli encoding […], dhaK from Citrobacter freundii encoding dihydroxyacetone kinase (dhaK) and fucO from E. coli encoding propanediol-oxidoreductase were cloned in plasmid pB2araJ to give plasmid pDP_gdf. Plasmid pDP_mgdf additionally contains methylglyoxal synthase from E. coli. According to known biochemical pathways, propanediol oxidoreductase is not relevant for this example. However, we tested plasmid pDP_gdf and its derivative, pDP_mgdf for functional complementation of a glpK-knock out, since these plasmids are relevant for recombinant 1,2-PD production.
(§3) Thus, an inducible unregulated pathway independent of the endogenous route to metabolise glycerol was established. The biomass finally obtained is equal or even higher compared to growth of a control strain (DH5alpha[…]araB) or when glucose is the substrate for growth.

For data set [7], the system named is E. coli DH5alpha araB-knockout. As to the kind of experiment: Growth on glucose or glycerol as carbon source, control strain. It is filed as cell-based. The settings on record: no plasmid, carbon source 10 g/l, 37° C., oxic, 5 days.
Text: as §2, §3

Data set [8] relates to E. coli DH5alpha araB glpK mutant with plasmid pDP_gdf. The experiment in a line: Growth on glucose or glycerol as carbon source, glpK mutant with plasmid pDP_gdf. The format is cell-based. The settings on record: carbon source 10 g/l, 37° C., oxic, 5 days.
Text: as §2, §3

Data set [9] concerns E. coli MG1655. The experiment in a line: Potential of impurities in crude glycerol to substitute for macro-elements of minimal medium (biomass production). It is filed as cell-based. The settings on record: glycerol 10 g/l, oxic, unregulated pH.
Data set [10] has as its system E. coli DH5alpha araB glpK mutant with plasmid pDP_mgdf. As to the kind of experiment: Growth on glucose or glycerol as carbon source, glpK mutant with plasmid pDP_mgdf. The format is cell-based. The settings on record: carbon source 10 g/l, 37° C., oxic, 5 days.
Text: as §2, §3

For the compound `CC(=O)C=O` [methylglyoxal], the “sensitivity of growth to methylglyoxal compared with wild-type” value in data set [1] and in [2] was “significantly more sensitive” throughout. Further, the “extracellular concentration of methylglyoxal at which inhibition of growth was observed” value in data set [3] was not below 2.5 mM. Besides, the “period of chemical stability” value in [4] is “at least 72 h”.

For `OCC(O)CO` [pure glycerol, glycerol], the “Biomass production [OD580] Ø” value in [5] (substrate 0.63 g/l) was determined as 0.5 OD580; in [5] (substrate 1.25 g/l), 0.6 OD580; in data set [5] (substrate 2.5 g/l), 1.2 OD580; in [5] (substrate 10 g/l), 5.0 OD580; in data set [5] (substrate 20 g/l), 6.0 OD580; in data set [5] (substrate 40 g/l) it was 5.7 OD580. For the same compound, the “Biomass production [OD580] Ø” value in data set [9] (culture broth devoid of nitrogen) stood at 1.1 OD580; in [9] (culture broth devoid of none), 2.5 OD580; in data set [9] (culture broth devoid of phosphate) it was 1.2 OD580; in [9] (culture broth devoid of sulfate), 1.0 OD580; in data set [9] (culture broth devoid of trace-elements), 2.4 OD580. For the same compound, the “Biomass production OD580” value in data set [6] is 0.1 OD580; in data set [7], 2.0 OD580; in data set [8] it was 4.5 OD580; in data set [10], 5.5 OD580.

Source of the values: patent US20110124069A1, “PRODUCTION METHOD” (priority 2008, published 2011).
